From PubChem BioAssay AID248 (DTP/NCI, 2004)
Where “and” joins values, the source holds several entries; their conditions need not be identical. Identical values can stand only once. Toxic doses and inconclusive results are not listed. Cut-off read from the data, not from the text of the source: active = T/C of 150% or more; inactive = T/C below 125%.

Test system: L1210 leukemia ip in BDF1 mice, survival T/C
Assay: NCI In Vivo Anticancer Drug Screen. Data for tumor model L1210 Leukemia (intraperitoneal) in B6D2F1 (BDF1) mice
Conditions: endpoint: mean survival time, higher = longer survival
In short: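 Mice bearing the transplanted tumor received compound or vehicle. Survival of the treated group was divided by that of the vehicle-treated control group to give the ratio.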

[1] = dose: 100.0 mg/kg/injection, schedule: Q01DX001 (ip), vehicle: carboxymethylcellulose (CMC)
[2] = dose: 200.0 mg/kg/injection, schedule: Q01DX001 (ip), vehicle: carboxymethylcellulose (CMC)
[3] = dose: 400.0 mg/kg/injection, schedule: Q01DX001 (ip), vehicle: carboxymethylcellulose (CMC)
[4] = dose: 100.0 mg/kg/injection, schedule: Q01DX001 (ip), vehicle: saline
[5] = dose: 200.0 mg/kg/injection, schedule: Q01DX001 (ip), vehicle: saline
[6] = dose: 50.0 mg/kg/injection, schedule: Q01DX001 (ip), vehicle: saline
[7] = dose: 400.0 mg/kg/injection, schedule: Q01DX001 (ip), vehicle: saline
[8] = dose: 100.0 mg/kg/injection, schedule: Q04DX003 (ip), vehicle: other
[9] = dose: 200.0 mg/kg/injection, schedule: Q04DX003 (ip), vehicle: other
[10] = dose: 400.0 mg/kg/injection, schedule: Q04DX003 (ip), vehicle: other
[11] = dose: 100.0 mg/kg/injection, schedule: Q04DX003 (ip), vehicle: saline with Tween-80
[12] = dose: 200.0 mg/kg/injection, schedule: Q04DX003 (ip), vehicle: saline with Tween-80
[13] = dose: 400.0 mg/kg/injection, schedule: Q04DX003 (ip), vehicle: saline with Tween-80
[14] = dose: 100.0 mg/kg/injection, schedule: Q04DX002 (ip), vehicle: saline with Tween-80
[15] = dose: 100.0 mg/kg/injection, schedule: Q04DX003 (ip), vehicle: Klucel (hydroxypropylcellulose) (HPC)
[16] = dose: 200.0 mg/kg/injection, schedule: Q04DX003 (ip), vehicle: Klucel (hydroxypropylcellulose) (HPC)
[17] = dose: 400.0 mg/kg/injection, schedule: Q04DX003 (ip), vehicle: Klucel (hydroxypropylcellulose) (HPC)
[18] = dose: 100.0 mg/kg/injection, schedule: Q04DX002 (ip), vehicle: saline
[19] = dose: 100.0 mg/kg/injection, schedule: Q04DX003 (ip), vehicle: saline
[20] = dose: 200.0 mg/kg/injection, schedule: Q04DX002 (ip), vehicle: saline
[21] = dose: 200.0 mg/kg/injection, schedule: Q04DX003 (ip), vehicle: saline
[22] = dose: 50.0 mg/kg/injection, schedule: Q01DX009 (ip), vehicle: saline with Tween-80
[23] = dose: 100.0 mg/kg/injection, schedule: Q01DX009 (ip), vehicle: saline with Tween-80
[24] = dose: 200.0 mg/kg/injection, schedule: Q01DX009 (ip), vehicle: saline with Tween-80

Measured: T/C

Cc1c([N+](=O)[O-])cc(C(C)(C)C)c(OC(=O)Nc2ccccc2)c1[N+](=O)[O-]
inactive: dose: 12.5 mg/kg/injection, schedule: Q04DX003 (ip), vehicle: Klucel (hydroxypropylcellulose) (HPC) 93 % of control | dose: 25.0 mg/kg/injection, schedule: Q04DX003 (ip), vehicle: Klucel (hydroxypropylcellulose) (HPC) 106 % of control | dose: 50.0 mg/kg/injection, schedule: Q04DX003 (ip), vehicle: Klucel (hydroxypropylcellulose) (HPC) 95 % of control

COc1cccc(/C(C)=N\OC(=O)N(C)C)c1
inactive: [1] 95 % of control | [2] 95 % of control | [3] 98 % of control

COC(=O)/C(=C\c1ccccc1)CNC(C)(C)C
inactive: [4] 100 % of control | [5] 97 % of control

CCOC(=O)C(C(C)=O)C(C)=O
inactive: [6] 101 % of control | [4] 107 % of control | [5] 97 % of control | [7] 97 % of control

O=C(NO)N/N=C/C=N/NC(=O)NO
inactive: dose: 75.0 mg/kg/injection, schedule: Q01DX001 (ip), vehicle: saline 100 % of control | dose: 150.0 mg/kg/injection, schedule: Q01DX001 (ip), vehicle: saline 100 % of control | dose: 300.0 mg/kg/injection, schedule: Q01DX001 (ip), vehicle: saline 107 % of control

NC(N)=NC(N)=NCCCc1ccccc1
inactive: dose: 12.5 mg/kg/injection, schedule: Q01DX001 (ip), vehicle: other 107 % of control | dose: 12.5 mg/kg/injection, schedule: Q04DX003 (ip), vehicle: other 97 % of control | dose: 25.0 mg/kg/injection, schedule: Q01DX001 (ip), vehicle: other 96 % of control | dose: 25.0 mg/kg/injection, schedule: Q04DX003 (ip), vehicle: other 94 % of control | dose: 50.0 mg/kg/injection, schedule: Q01DX001 (ip), vehicle: other 102 % of control | dose: 50.0 mg/kg/injection, schedule: Q04DX003 (ip), vehicle: other 97 % of control | [4] 96 % of control | [5] 96 % of control

Nc1ccccc1-n1cccc1
inactive: [8] 100 % of control | [9] 113 % of control | [10] 100 % of control

O=[N+]([O-])c1ccc(Cc2ccc([N+](=O)[O-])cc2)cc1
inactive: [11] 102 % of control | [12] 109 % of control | [13] 98 % of control

CCCCCCCCCCOC(=O)C[n+]1ccc(C(N)=O)cc1
inactive: dose: 12.5 mg/kg/injection, schedule: Q04DX003 (ip), vehicle: saline 98 % of control | dose: 25.0 mg/kg/injection, schedule: Q04DX003 (ip), vehicle: saline 91 % of control | dose: 50.0 mg/kg/injection, schedule: Q04DX003 (ip), vehicle: saline 91 % of control

O=C1C2CCCC3CCCC(C(=O)N1O)C32 (centres undefined)
inactive: [14] 104 % of control | dose: 200.0 mg/kg/injection, schedule: Q04DX002 (ip), vehicle: saline with Tween-80 99 % of control | dose: 400.0 mg/kg/injection, schedule: Q04DX002 (ip), vehicle: saline with Tween-80 86 % of control

Fc1ccc(C=C2c3ccccc3-c3ccccc32)cc1
inactive: dose: 25.0 mg/kg/injection, schedule: Q04DX002 (ip), vehicle: gum acacia 109 % of control | dose: 50.0 mg/kg/injection, schedule: Q04DX002 (ip), vehicle: gum acacia 92 % of control | dose: 100.0 mg/kg/injection, schedule: Q04DX002 (ip), vehicle: gum acacia 92 % of control

Cc1cc(NC(=O)c2cccc(S(=O)(=O)F)c2)cc(C)c1OCc1nc(N)nc(N)c1-c1ccc(Cl)c(Cl)c1
inactive: dose: 100.0 mg/kg/injection, schedule: Q01DX001 (ip), vehicle: saline with Tween-80 97 % of control | dose: 200.0 mg/kg/injection, schedule: Q01DX001 (ip), vehicle: saline with Tween-80 88 % of control | dose: 400.0 mg/kg/injection, schedule: Q01DX001 (ip), vehicle: saline with Tween-80 101 % of control

Nc1ccc(C(O)(C(F)(F)F)C(F)(F)F)c(C(=O)O)c1
inactive: [8] 101 % of control | [9] 101 % of control | [10] 101 % of control

CN(C)C(=S)Oc1ccc(N)cc1
inactive: [15] 94 % of control | [16] 101 % of control | [17] 94 % of control

O=C(NC(=S)Nc1ccccc1)c1cccc(Cl)c1
inactive: dose: 75.0 mg/kg/injection, schedule: Q01DX001 (ip), vehicle: carboxymethylcellulose (CMC) 95 % of control | dose: 150.0 mg/kg/injection, schedule: Q01DX001 (ip), vehicle: carboxymethylcellulose (CMC) 96 % of control

CCCC1(c2ccccc2)CC(=O)NC1=O (centres undefined)
inactive: [4] 100 % of control | dose: 100.0 mg/kg/injection, schedule: Q01DX009 (ip), vehicle: saline 106 % of control and 107 % of control | [18] 100 % of control and 108 % of control | [19] 103 % of control | [5] 97 % of control | dose: 200.0 mg/kg/injection, schedule: Q01DX009 (ip), vehicle: saline 117 % of control and 89 % of control | [20] 105 % of control and 112 % of control | [21] 97 % of control | [7] 95 % of control | dose: 400.0 mg/kg/injection, schedule: Q01DX009 (ip), vehicle: saline 98 % of control and 86 % of control | dose: 400.0 mg/kg/injection, schedule: Q04DX002 (ip), vehicle: saline 105 % of control and 108 % of control | dose: 400.0 mg/kg/injection, schedule: Q04DX003 (ip), vehicle: saline 97 % of control

CCS(=O)(=O)C(c1ccccc1)S(=O)(=O)CC
inactive: [1] 95 % of control | [2] 87 % of control | [3] 98 % of control

CCCOc1cccc(N)c1
inactive: [6] 96 % of control | [4] 91 % of control | [5] 93 % of control

CC(=O)c1cc(C)c(O)c(C)c1
inactive: dose: 50.0 mg/kg/injection, schedule: Q01DX001 (ip), vehicle: carboxymethylcellulose (CMC) 107 % of control | [1] 89 % of control | [2] 94 % of control | [3] 91 % of control

CCO/C=C1\SC(=S)N(Cc2ccccc2)C1=O
inactive: [11] 94 % of control | [12] 99 % of control | [13] 102 % of control

CN(C)CCCCNc1ccc(NCCCCN(C)C)c2c1C(=O)c1c(O)ccc(O)c1C2=O
inactive: [18] 99 % of control | [20] 105 % of control

O=c1oc(-c2cccc([N+](=O)[O-])c2)nc2ccccc12
inactive: [22] 97 % of control | [23] 94 % of control | [24] 93 % of control

CCCCCC/C(C)=N/O
inactive: [23] 94 % of control | [11] 106 % of control | [24] 103 % of control | [12] 95 % of control | [13] 98 % of control

c1cc[c]([Pb]([c]2ccccc2)([c]2ccccc2)[n]2cnc3cncnc32)cc1
inactive: dose: 5.0 mg/kg/injection, schedule: Q01DX001 (ip), vehicle: other 103 % of control | dose: 10.0 mg/kg/injection, schedule: Q01DX001 (ip), vehicle: other 95 % of control

Cc1cc(C)n(/N=C/c2c[nH]c3ccccc23)c(=O)c1C#N
inactive: dose: 100.0 mg/kg/injection, schedule: Q01DX001 (ip), vehicle: Klucel (hydroxypropylcellulose) (HPC) 97 % of control | [15] 97 % of control | dose: 200.0 mg/kg/injection, schedule: Q01DX001 (ip), vehicle: Klucel (hydroxypropylcellulose) (HPC) 97 % of control | [16] 94 % of control | dose: 400.0 mg/kg/injection, schedule: Q01DX001 (ip), vehicle: Klucel (hydroxypropylcellulose) (HPC) 96 % of control | [17] 97 % of control

C=C(Br)CNC(=O)OCCCC
inactive: dose: 12.5 mg/kg/injection, schedule: Q01DX009 (ip), vehicle: saline with Tween-80 94 % of control | dose: 25.0 mg/kg/injection, schedule: Q01DX009 (ip), vehicle: saline with Tween-80 100 % of control | [22] 98 % of control | [19] 94 % of control | [21] 102 % of control

C=C(C)C1CCC2(C=O)CCC3(C)C(CCC4C5(C)CCC(OC6CCCCO6)C(C)(C)C5CCC43C)C12 (centres undefined)
inactive: dose: 25.0 mg/kg/injection, schedule: Q04DX002 (ip), vehicle: saline with Tween-80 90 % of control | [14] 90 % of control
